Assay [1] addresses T1, calcium-sensing receptor (CaSR) (Homo sapiens, UniProt P41180).
T1 sequence (P41180 20-1078): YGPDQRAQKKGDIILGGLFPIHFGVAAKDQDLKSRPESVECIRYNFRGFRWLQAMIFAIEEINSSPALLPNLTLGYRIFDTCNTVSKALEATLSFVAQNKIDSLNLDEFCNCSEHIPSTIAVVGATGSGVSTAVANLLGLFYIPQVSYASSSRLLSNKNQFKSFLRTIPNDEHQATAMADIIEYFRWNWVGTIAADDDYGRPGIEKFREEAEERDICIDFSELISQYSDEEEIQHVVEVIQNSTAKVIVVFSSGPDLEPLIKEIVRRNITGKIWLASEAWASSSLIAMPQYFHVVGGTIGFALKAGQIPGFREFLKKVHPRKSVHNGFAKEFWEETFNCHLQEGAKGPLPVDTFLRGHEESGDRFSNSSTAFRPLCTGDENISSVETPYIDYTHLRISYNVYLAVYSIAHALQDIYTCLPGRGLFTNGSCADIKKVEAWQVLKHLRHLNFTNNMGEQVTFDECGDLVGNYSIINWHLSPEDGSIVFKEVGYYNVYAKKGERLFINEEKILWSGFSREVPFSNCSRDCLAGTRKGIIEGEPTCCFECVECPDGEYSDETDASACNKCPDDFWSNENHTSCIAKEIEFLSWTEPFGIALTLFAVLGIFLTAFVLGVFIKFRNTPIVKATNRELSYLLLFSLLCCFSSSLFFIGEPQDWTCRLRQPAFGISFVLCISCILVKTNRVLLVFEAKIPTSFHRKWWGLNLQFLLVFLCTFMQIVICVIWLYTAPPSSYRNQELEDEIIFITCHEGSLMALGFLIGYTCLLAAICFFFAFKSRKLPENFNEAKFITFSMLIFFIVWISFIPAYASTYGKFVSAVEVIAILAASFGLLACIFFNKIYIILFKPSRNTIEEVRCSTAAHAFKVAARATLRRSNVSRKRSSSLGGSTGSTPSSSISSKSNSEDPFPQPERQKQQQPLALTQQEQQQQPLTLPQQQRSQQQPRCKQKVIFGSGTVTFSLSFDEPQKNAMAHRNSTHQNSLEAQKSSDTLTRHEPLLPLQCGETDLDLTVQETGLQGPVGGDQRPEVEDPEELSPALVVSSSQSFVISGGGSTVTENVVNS
As to the kind of experiment: concentration-dependent competition with DAZ-G photo-conjugation in cells. It is filed as cell-based. Also on record: FLAG-CaSR.

The target of assay [2] is T1, calcium-sensing receptor (CaSR). As to the kind of experiment: Cal-520 Ca2+ flux in HEK293-CaSR cells (EC50); competition with DAZ-G photo-conjugation; E837A and S170A mutants. Format: cell-based.

Turning to `N[C@@H](Cc1ccccc1)C(=O)O` [L-Phe], the “concentration-dependent competition with DAZ-G photo-conjugation in cells” value in assay [1] is recorded as “L-Phe, a prototype ligand for ABS, induced concentration-dependent competition to DAZ-G”.
As to `Cn1c(=O)c2c(ncn2C)n(C)c1=O` [caffeine], the EC50 in assay [2] was determined as 3.35 µM.

The record behind these values is publication PMC11267565, “Glutathione-Based Photoaffinity Probe Identifies Caffeine as a Positive Allosteric Modulator of the Calcium-Sensing Receptor” (ACS Chemical Biology, 2024).
